Measurements as given in ChEMBL document CHEMBL1201862, “PubChem BioAssay data set” (2004).
The source made the active and inactive calls.

What was measured:
[1] = target: FAD-linked sulfhydryl oxidase ALR (Homo sapiens, UniProt P55789); experiment: ALR-catalysed DTT oxidation blockers – biochemical, H2O2 detection, luminescence, cherry-pick, dose response (AID 493248)
Coagulation factor XII = target: T1, Coagulation factor XII (Homo sapiens, UniProt P00748); experiment: activated coagulation factor XII inhibitor potency, concentration-effect curve, cell-free (AID 716); type: functional
T1 sequence (P00748 whole entry): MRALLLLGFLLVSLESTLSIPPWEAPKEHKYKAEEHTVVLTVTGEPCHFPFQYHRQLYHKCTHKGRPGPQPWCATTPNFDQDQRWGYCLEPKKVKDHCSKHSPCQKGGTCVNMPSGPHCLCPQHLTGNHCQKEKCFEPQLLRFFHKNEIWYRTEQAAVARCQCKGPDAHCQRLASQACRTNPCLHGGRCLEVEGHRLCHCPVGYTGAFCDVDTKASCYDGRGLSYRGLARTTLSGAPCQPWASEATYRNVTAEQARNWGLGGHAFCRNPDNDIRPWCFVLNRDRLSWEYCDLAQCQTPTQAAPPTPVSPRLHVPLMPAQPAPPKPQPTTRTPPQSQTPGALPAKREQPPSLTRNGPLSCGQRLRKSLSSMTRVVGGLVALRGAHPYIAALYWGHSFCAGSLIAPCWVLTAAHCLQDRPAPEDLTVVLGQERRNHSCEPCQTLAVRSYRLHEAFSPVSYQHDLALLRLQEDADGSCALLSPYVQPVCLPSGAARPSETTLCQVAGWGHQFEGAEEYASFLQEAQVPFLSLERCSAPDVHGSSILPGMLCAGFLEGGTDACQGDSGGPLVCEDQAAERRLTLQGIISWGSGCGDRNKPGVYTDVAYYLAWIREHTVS

[2] = target: Lysosomal acid glucosylceramidase (Homo sapiens, UniProt P04062); experiment: Dose response cell-based high throughput screening assay to identify enhancers of beta-glucosidase activity. [Related pubchem assays: 784 ]; type: functional
[3] = target: Intestinal-type alkaline phosphatase (Homo sapiens, UniProt P09923); experiment: Dose Response confirmation of uHTS hits from a small molecule inhibitors of human intestinal alkaline phosphatase via a luminescent assay. [Related pubchem assays (depositor defined):AID2544, AID2574]; type: functional
Sequence of Intestinal-type alkaline phosphatase (P09923 whole entry): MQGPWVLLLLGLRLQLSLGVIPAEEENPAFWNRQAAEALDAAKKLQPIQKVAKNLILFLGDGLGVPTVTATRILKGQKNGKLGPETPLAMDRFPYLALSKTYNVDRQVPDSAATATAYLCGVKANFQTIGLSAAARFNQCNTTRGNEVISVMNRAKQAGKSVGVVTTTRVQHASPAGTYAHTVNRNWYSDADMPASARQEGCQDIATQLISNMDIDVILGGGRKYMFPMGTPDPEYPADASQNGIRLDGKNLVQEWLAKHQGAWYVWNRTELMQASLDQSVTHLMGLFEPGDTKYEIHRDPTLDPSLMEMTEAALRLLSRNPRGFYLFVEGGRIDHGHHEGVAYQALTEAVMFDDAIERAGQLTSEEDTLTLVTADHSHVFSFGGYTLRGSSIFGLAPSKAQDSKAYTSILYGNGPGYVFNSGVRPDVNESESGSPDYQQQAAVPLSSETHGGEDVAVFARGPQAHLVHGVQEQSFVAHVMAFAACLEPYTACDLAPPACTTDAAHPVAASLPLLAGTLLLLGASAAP

[4] = target: Voltage-gated N-type calcium channel alpha-1B subunit/Amyloid beta A4 precursor protein-binding family A member 1 (Homo sapiens, UniProt Q00975+Q02410); experiment: disruptors of Mint-PDZ/N-type channel peptide interaction – biochemical, HTRF, set 2, SAR follow-up (AID 434980); type: functional
Sequence of Voltage-gated N-type calcium channel alpha-1B subunit/Amyloid beta A4 precursor protein-binding family A member 1 (Q00975 whole entry): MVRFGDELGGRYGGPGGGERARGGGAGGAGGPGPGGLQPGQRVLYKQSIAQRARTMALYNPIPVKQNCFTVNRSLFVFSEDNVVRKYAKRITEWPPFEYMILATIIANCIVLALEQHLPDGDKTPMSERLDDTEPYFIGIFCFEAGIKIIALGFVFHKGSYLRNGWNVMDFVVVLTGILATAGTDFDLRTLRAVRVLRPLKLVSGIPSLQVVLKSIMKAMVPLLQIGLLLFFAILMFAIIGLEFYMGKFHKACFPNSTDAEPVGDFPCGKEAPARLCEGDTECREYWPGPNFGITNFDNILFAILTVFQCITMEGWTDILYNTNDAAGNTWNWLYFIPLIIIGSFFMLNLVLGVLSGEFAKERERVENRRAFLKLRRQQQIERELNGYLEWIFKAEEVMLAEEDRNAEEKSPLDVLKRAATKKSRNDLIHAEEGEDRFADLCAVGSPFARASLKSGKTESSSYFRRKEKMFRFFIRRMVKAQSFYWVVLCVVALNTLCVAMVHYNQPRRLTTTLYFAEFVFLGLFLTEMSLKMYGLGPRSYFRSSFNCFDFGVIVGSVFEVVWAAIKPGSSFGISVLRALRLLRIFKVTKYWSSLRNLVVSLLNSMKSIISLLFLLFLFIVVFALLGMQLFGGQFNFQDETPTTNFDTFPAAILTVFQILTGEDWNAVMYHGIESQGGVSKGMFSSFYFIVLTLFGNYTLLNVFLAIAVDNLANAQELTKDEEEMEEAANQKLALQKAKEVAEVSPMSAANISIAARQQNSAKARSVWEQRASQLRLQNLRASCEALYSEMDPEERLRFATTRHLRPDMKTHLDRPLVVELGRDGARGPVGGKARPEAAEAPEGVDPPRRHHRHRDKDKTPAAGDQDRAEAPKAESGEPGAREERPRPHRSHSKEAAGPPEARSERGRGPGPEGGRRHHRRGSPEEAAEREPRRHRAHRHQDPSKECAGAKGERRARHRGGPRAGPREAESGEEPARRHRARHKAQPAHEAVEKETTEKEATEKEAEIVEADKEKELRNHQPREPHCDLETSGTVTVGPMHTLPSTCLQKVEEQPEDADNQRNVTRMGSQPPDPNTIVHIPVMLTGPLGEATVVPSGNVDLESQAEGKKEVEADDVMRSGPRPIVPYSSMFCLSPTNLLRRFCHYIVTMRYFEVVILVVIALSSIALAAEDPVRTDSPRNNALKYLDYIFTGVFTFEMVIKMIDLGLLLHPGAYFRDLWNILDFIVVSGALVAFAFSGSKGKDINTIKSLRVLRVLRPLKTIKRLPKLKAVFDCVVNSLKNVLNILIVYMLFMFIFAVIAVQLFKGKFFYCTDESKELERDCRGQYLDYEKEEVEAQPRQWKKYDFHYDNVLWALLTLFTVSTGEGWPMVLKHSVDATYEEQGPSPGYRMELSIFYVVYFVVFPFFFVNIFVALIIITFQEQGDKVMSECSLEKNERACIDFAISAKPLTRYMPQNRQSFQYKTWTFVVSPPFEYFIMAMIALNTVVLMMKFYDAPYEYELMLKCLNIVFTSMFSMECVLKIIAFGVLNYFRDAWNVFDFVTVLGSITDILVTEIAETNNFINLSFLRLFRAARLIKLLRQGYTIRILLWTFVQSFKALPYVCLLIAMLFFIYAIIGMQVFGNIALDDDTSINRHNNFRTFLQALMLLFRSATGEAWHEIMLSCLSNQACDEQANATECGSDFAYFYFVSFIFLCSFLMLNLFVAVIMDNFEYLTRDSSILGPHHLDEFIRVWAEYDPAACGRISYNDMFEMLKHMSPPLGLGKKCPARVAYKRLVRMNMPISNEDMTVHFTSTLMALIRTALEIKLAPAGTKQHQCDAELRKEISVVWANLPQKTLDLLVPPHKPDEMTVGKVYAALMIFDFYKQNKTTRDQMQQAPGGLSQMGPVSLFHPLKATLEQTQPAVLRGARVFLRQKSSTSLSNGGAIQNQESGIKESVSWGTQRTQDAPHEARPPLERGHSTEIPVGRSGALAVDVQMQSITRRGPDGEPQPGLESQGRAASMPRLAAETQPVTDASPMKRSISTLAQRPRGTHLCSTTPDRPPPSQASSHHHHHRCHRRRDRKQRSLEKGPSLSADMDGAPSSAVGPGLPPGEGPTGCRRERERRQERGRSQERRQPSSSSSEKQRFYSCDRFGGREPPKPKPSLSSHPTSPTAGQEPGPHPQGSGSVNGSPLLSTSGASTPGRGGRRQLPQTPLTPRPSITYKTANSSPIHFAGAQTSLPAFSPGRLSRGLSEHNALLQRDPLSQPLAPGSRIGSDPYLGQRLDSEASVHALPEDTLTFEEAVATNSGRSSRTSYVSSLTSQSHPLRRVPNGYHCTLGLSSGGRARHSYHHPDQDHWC
Sequence of Voltage-gated N-type calcium channel alpha-1B subunit/Amyloid beta A4 precursor protein-binding family A member 1 (Q02410 whole entry): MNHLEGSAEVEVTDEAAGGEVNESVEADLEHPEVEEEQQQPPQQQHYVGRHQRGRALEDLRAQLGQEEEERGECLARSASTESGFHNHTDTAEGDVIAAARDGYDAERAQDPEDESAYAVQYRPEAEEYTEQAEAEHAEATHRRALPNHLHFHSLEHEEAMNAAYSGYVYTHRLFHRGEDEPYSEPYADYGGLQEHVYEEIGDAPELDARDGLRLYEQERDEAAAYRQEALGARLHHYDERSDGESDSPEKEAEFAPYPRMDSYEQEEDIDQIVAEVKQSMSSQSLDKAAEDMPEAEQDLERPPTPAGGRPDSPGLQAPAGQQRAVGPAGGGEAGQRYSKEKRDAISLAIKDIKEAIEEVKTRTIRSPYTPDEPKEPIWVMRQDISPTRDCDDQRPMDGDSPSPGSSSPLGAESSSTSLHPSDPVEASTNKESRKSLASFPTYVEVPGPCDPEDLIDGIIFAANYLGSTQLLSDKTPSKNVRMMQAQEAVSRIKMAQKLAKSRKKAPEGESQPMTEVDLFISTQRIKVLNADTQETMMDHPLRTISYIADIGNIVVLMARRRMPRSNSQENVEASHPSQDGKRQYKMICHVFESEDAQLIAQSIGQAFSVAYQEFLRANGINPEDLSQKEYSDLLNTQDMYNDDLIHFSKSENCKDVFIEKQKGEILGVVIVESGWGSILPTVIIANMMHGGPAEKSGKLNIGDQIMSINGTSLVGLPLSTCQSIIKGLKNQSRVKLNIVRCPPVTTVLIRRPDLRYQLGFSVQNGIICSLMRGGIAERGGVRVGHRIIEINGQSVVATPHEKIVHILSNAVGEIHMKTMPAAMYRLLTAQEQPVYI

Salmon testes DNA = experiment: acridine orange-DNA binding displacement – biochemical, fluorescence polarization, cherry-picked samples, set 2, artefact control for KSHV LANA DNA-binding inhibitor project, dose response (AID 504727); parameters: species or system Salmonidae
[5] = test system: Streptococcus sp. 'group A'; experiment: Streptococcus pyogenes SK(-)GAS viability under kanamycin – luminescence, BacTiterGlo, confirmation, counter-screen for streptokinase expression inhibitor project, dose response (AID 1900); type: functional, organism-based
ORF 73 = ORF 73 (Human herpesvirus 8, UniProt O40947); experiment: KSHV LANA DNA-binding disruption – biochemical, fluorescence polarization, cherry-picked samples, dose response (AID 504725); parameters: species or system Human gammaherpesvirus 8;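 further: fluorescence polarization of a labeled DNA duplex reporting LANA DNA binding; potency is for inhibitors that block LANA binding to the DNA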
[6] = Luminescence Cell-Based Dose Retest to Confirm Inhibitors of Cancer Stem Cells. [Related pubchem assays (depositor defined):AID2717, AID2721]; type: functional; conditions: Homo sapiens
Streptococcus = experiment: GAS UMAA2166 growth inhibition – luminescence, BacTiterGlo, counter-screen for streptokinase expression inhibitor project, dose response (AID 1915); type: functional, organism-based;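 further: potency for reduction of bacterial viability or growth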
[7] = target: T2, Rac GTPase-activating protein 1 (Homo sapiens, UniProt Q9H0H5); experiment: blockers of MgcRacGAP-driven Rac1 GTP hydrolysis – biochemical, ADP Hunter fluorescence, primary and confirmatory, confirmation (AID 624330); type: functional
T2 sequence (Q9H0H5 whole entry): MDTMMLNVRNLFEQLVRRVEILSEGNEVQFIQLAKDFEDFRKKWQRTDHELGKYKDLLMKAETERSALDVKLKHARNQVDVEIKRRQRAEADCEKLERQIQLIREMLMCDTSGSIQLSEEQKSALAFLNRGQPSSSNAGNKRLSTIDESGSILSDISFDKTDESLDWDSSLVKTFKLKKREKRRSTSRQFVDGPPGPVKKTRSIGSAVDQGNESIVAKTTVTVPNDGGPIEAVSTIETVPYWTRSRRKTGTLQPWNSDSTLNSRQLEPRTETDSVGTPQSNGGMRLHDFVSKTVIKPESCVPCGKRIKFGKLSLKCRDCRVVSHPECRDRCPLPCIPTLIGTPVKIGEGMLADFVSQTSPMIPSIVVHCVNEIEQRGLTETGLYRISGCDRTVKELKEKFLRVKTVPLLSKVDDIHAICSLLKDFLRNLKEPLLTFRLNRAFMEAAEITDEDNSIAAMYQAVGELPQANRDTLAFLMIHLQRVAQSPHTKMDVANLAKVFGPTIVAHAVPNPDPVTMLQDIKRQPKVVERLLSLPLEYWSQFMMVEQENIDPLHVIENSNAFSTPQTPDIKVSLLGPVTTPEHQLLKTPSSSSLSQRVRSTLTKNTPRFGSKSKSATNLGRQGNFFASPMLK

Keap1/Nrf2 = Keap1/Nrf2 (Homo sapiens, UniProt Q14145); experiment: disruptors of Keap1 binding to Nrf2 peptide – biochemical, fluorescence polarization, cherry-picked samples, dose response (AID 588683)
Sequence of Keap1/Nrf2 (Q16236 whole entry): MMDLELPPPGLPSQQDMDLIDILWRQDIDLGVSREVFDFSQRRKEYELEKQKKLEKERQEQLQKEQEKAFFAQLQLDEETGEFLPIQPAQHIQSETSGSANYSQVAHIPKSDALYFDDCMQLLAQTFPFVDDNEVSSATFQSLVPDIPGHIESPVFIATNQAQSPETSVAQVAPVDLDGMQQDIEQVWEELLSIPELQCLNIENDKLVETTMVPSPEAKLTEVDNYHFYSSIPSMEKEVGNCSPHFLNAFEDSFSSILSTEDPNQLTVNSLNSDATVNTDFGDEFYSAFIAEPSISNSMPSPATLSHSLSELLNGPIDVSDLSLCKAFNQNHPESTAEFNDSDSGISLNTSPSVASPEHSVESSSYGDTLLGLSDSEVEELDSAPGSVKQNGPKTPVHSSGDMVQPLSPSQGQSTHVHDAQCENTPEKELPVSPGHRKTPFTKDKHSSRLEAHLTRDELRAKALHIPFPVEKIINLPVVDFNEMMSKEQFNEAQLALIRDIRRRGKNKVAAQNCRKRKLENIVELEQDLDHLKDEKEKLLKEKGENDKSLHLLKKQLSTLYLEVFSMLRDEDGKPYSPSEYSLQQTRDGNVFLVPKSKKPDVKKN
Sequence of Keap1/Nrf2 (Q14145 whole entry): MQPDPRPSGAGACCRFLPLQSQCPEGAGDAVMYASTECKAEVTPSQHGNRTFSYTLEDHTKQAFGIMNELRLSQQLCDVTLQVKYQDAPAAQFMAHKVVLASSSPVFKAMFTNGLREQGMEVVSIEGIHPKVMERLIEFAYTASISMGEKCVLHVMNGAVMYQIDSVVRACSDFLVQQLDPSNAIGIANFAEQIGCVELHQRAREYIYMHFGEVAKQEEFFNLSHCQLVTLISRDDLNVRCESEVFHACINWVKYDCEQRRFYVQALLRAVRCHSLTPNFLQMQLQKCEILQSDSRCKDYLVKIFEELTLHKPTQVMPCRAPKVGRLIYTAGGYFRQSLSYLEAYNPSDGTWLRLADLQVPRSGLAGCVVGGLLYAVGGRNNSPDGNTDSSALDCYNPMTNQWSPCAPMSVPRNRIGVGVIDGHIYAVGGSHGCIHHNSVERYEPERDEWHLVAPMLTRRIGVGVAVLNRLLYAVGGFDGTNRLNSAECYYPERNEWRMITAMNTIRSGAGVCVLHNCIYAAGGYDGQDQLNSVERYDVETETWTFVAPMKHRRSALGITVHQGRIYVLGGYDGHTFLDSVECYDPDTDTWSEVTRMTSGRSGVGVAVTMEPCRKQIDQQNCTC

Streptokinase A = target: T3, Streptokinase A (Streptococcus pyogenes serotype M1, UniProt P10520); experiment: viability-normalized secreted streptokinase activity reduction – plasminogen activation absorbance, OD405, dose response (AID 1914); type: functional, Streptococcus pyogenes M1 GAS;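 further: secreted streptokinase activity via plasminogen activation per viability signal from cell pellet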
T3 sequence (P10520 whole entry): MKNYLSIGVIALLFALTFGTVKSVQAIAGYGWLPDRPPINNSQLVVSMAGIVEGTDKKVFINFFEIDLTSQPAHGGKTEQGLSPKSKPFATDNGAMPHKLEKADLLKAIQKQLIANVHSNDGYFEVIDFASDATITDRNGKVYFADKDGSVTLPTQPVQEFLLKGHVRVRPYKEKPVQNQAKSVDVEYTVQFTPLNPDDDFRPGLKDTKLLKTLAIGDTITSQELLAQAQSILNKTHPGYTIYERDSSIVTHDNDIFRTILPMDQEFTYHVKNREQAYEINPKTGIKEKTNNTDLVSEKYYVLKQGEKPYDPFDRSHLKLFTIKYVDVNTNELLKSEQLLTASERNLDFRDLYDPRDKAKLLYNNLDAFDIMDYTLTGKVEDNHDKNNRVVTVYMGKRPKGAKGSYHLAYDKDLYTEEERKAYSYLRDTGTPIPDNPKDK

HeLa = experiment: viability loss in HeLa cells – cell-based, 24 h, cherry-picked samples, cytotoxicity control, dose response (AID 504726); type: functional; conditions: Homo sapiens;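 further: potency for cytotoxicity as loss of luminescence signal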
Cytochrome P450 2C9 = Cytochrome P450 2C9 (Homo sapiens, UniProt P11712); conditions: Potency
[8] = target: Metabotropic glutamate receptor 4 (Rattus norvegicus, UniProt P31423); experiment: Modulation of the Metabotropic Glutamate Receptor mGluR4: Rat PAM Potency. [Related pubchem assays (depositor defined):AID2437, AID2807]; type: functional

In the case of CC(C)C1C(C#N)=C(N)Oc2[nH]nc(-c3cccs3)c21 (stereo unspecified), the AC50 [1] is reported as 6.41 µM (active) and the IC50 (Coagulation factor XII) is reported as > 50 µM (inactive).
For CC(=O)N1CCc2cc(S(=O)(=O)CCC(=O)N3CCN(C(=O)c4ccco4)CC3)ccc21, the EC50 [2] was > 50 µM (not active).
With CCOc1cccc(OCCOCCOc2ccccc2C(C)=O)c1 the IC50 [3] was > 100 µM (inactive).
In the case of CC(C)CCNC(=O)c1cc(-c2ccco2)nc2ccccc12, the IC50 [4] is reported as > 56.8 µM (inactive).
In the case of COc1ccc(NC(=O)c2cccc(-c3ccc(O)cc3)c2)cn1, the AC50 (Salmon testes DNA) is reported as 45.4 µM (active), the EC50 [5] is reported as 16.9 µM (active) and the AC50 (ORF 73) is reported as 34.3 µM (active). The AC50 [6] was 4.31 µM (active), the EC50 (Streptococcus) was > 150 µM (not active) and the IC50 [7] was 42.3 µM (active). The AC50 (Keap1/Nrf2) was 43.8 µM (active), the EC50 (Streptokinase A) was > 150 µM (not active) and the AC50 (HeLa) was 144 µM (active).
In the case of CC(C)[C@@H](CC(=O)N[C@@H]1CCCC[C@H]1C(=O)N[C@H](CC(=O)N[C@@H](CCC(=O)O)CC(=O)O)Cc1ccccc1)NC(=O)C[C@H](CO)NC(=O)[C@@H]1CNCC[C@H]1N, the AC50 (Cytochrome P450 2C9) is reported as 31.6 µM (inconclusive).
With O=C(Nc1ccc(NC(=O)c2ccccc2Cl)c(F)c1)c1ccccn1 the EC50 [8] was 0.74 µM (active).
